# Entries after “also recorded” stand apart in the source; their conditions may differ. Positions of bridges follow the written chain, without caps; N, C: chain ends. Non-standard residues stand in square brackets, D forms with d. No end group written: not given here. Nle = CCCC[C@H](N)C(=O)O; dDap = NC[C@@H](N)C(=O)O; Dap = NC[C@H](N)C(=O)O; Nal = naphthylalanine
# Experiments:
# TNFα = TNFα secretion in IMG microglial cells after LPS (ELISA); type: cell-based; settings: for activity in reducing TNFα activation: A1-A15 screen, 50 or 100 μg/ml, FIG. 5; for activity in reducing TNFα activation / activity in reducing TNFα: LPS 100 ng/ml 24 hours; for activity in reducing TNFα: FIG. 6A/7, up to 50 μg/mL, versus SP163M, SA7; for EC50 TNFα: IMG microglial cells, LPS 100 ng/ml, 24 hours
# Experimental: In the NFκB reporter cells, the NFκB inducible Secreted Embryonic Alkaline Phosphatase (SEAP) was measured in the supernatant. TNFα secretion in the supernatant was measured via ELISA.
# (§1) Various SERPIN peptide derivatives were screened in vitro for their ability to reduce TNFα and NFκB secretion via LRP-1 activation. The NFκB reporter cells (THP1-XBlue-MD2-CD14 cells) were treated with each peptide derivative at various concentrations, up to 100 μg/ml before being insulted with LPS (5 ng/ml) and incubated overnight. The NFκB inducible Secreted Embryonic Alkaline Phosphatase (SEAP) was measured in the supernatant and read for absorbance. IMG Microglial cells were treated with each peptide derivative at various concentrations, up to 100 μg/ml before LPS (100 ng/ml) stimulation for 24 hours. An ELISA was used to measure TNFα in the supernatant ([…]).
# NFκB = NFκB reporter assay (SEAP) in THP1-XBlue-MD2-CD14 cells after LPS; type: cell-based; settings: for activity in reducing NFκB activation: LPS 5 ng/ml 24 hours; for EC50 NFκB: NFκB reporter cells, LPS 5 ng/ml; for NFκB inhibition activity: 50 μg/ml, LPS 5 ng/ml overnight, compared to SP163M (and SP22)
# Experimental: The NFκB inducible Secreted Embryonic Alkaline Phosphatase (SEAP) was measured in the supernatant and read for absorbance.
# as §1
# IL-6 = IL-6 secretion in IMG microglial cells after LPS (ELISA); type: cell-based; settings: for EC50 IL-6: IMG microglial cells, LPS 100 ng/ml, 24 hours
# [1] = system: NFκB reporter cells or IMG microglial cells; assay: Cytotoxicity assay (CellTiter-Glo Luminescent Cell Viability Assay); settings: up to 12.5 μg/ml, 24 hours, NFκB reporter cells and IMG microglial cells, FIG. 11
# Experimental: IMG cells were treated with peptide derivatives at concentrations at or exceeding those tested for the activity assays (FIGS. 5-7) for 24 hours.
# [2] = system: OVA induced allergic asthma; assay: OVA induced allergic asthma mouse model, lung homogenate; type: in vivo, mice
# Text: Infiltration of immune cells into the lung likely account for the increase in total protein levels in the lung.
# [3] = target: low-density lipoprotein receptor related protein-1 (LRP-1) on THP1-XBlue-MD2-CD14 NFκB reporter cells (UniProt Q07954 20-4544); assay: cell-based or functional assay
# [4] = target: low-density lipoprotein receptor related protein-1 (LRP-1) on IMG microglial cells (UniProt Q91ZX7 20-4545, limits assumed); assay: cell-based or functional assay
# serine protease TMPRSS2 = serine protease TMPRSS2 (UniProt O15393 1-492, limits assumed); assay: cell-based or functional assay
# [5] = FIG. 6B/7, up to 50 μg/mL, versus SP163M, SA7
# Chain of low-density lipoprotein receptor related protein-1 (LRP-1) on THP1-XBlue-MD2-CD14 NFκB reporter cells (Q07954 20-4544 limits assumed): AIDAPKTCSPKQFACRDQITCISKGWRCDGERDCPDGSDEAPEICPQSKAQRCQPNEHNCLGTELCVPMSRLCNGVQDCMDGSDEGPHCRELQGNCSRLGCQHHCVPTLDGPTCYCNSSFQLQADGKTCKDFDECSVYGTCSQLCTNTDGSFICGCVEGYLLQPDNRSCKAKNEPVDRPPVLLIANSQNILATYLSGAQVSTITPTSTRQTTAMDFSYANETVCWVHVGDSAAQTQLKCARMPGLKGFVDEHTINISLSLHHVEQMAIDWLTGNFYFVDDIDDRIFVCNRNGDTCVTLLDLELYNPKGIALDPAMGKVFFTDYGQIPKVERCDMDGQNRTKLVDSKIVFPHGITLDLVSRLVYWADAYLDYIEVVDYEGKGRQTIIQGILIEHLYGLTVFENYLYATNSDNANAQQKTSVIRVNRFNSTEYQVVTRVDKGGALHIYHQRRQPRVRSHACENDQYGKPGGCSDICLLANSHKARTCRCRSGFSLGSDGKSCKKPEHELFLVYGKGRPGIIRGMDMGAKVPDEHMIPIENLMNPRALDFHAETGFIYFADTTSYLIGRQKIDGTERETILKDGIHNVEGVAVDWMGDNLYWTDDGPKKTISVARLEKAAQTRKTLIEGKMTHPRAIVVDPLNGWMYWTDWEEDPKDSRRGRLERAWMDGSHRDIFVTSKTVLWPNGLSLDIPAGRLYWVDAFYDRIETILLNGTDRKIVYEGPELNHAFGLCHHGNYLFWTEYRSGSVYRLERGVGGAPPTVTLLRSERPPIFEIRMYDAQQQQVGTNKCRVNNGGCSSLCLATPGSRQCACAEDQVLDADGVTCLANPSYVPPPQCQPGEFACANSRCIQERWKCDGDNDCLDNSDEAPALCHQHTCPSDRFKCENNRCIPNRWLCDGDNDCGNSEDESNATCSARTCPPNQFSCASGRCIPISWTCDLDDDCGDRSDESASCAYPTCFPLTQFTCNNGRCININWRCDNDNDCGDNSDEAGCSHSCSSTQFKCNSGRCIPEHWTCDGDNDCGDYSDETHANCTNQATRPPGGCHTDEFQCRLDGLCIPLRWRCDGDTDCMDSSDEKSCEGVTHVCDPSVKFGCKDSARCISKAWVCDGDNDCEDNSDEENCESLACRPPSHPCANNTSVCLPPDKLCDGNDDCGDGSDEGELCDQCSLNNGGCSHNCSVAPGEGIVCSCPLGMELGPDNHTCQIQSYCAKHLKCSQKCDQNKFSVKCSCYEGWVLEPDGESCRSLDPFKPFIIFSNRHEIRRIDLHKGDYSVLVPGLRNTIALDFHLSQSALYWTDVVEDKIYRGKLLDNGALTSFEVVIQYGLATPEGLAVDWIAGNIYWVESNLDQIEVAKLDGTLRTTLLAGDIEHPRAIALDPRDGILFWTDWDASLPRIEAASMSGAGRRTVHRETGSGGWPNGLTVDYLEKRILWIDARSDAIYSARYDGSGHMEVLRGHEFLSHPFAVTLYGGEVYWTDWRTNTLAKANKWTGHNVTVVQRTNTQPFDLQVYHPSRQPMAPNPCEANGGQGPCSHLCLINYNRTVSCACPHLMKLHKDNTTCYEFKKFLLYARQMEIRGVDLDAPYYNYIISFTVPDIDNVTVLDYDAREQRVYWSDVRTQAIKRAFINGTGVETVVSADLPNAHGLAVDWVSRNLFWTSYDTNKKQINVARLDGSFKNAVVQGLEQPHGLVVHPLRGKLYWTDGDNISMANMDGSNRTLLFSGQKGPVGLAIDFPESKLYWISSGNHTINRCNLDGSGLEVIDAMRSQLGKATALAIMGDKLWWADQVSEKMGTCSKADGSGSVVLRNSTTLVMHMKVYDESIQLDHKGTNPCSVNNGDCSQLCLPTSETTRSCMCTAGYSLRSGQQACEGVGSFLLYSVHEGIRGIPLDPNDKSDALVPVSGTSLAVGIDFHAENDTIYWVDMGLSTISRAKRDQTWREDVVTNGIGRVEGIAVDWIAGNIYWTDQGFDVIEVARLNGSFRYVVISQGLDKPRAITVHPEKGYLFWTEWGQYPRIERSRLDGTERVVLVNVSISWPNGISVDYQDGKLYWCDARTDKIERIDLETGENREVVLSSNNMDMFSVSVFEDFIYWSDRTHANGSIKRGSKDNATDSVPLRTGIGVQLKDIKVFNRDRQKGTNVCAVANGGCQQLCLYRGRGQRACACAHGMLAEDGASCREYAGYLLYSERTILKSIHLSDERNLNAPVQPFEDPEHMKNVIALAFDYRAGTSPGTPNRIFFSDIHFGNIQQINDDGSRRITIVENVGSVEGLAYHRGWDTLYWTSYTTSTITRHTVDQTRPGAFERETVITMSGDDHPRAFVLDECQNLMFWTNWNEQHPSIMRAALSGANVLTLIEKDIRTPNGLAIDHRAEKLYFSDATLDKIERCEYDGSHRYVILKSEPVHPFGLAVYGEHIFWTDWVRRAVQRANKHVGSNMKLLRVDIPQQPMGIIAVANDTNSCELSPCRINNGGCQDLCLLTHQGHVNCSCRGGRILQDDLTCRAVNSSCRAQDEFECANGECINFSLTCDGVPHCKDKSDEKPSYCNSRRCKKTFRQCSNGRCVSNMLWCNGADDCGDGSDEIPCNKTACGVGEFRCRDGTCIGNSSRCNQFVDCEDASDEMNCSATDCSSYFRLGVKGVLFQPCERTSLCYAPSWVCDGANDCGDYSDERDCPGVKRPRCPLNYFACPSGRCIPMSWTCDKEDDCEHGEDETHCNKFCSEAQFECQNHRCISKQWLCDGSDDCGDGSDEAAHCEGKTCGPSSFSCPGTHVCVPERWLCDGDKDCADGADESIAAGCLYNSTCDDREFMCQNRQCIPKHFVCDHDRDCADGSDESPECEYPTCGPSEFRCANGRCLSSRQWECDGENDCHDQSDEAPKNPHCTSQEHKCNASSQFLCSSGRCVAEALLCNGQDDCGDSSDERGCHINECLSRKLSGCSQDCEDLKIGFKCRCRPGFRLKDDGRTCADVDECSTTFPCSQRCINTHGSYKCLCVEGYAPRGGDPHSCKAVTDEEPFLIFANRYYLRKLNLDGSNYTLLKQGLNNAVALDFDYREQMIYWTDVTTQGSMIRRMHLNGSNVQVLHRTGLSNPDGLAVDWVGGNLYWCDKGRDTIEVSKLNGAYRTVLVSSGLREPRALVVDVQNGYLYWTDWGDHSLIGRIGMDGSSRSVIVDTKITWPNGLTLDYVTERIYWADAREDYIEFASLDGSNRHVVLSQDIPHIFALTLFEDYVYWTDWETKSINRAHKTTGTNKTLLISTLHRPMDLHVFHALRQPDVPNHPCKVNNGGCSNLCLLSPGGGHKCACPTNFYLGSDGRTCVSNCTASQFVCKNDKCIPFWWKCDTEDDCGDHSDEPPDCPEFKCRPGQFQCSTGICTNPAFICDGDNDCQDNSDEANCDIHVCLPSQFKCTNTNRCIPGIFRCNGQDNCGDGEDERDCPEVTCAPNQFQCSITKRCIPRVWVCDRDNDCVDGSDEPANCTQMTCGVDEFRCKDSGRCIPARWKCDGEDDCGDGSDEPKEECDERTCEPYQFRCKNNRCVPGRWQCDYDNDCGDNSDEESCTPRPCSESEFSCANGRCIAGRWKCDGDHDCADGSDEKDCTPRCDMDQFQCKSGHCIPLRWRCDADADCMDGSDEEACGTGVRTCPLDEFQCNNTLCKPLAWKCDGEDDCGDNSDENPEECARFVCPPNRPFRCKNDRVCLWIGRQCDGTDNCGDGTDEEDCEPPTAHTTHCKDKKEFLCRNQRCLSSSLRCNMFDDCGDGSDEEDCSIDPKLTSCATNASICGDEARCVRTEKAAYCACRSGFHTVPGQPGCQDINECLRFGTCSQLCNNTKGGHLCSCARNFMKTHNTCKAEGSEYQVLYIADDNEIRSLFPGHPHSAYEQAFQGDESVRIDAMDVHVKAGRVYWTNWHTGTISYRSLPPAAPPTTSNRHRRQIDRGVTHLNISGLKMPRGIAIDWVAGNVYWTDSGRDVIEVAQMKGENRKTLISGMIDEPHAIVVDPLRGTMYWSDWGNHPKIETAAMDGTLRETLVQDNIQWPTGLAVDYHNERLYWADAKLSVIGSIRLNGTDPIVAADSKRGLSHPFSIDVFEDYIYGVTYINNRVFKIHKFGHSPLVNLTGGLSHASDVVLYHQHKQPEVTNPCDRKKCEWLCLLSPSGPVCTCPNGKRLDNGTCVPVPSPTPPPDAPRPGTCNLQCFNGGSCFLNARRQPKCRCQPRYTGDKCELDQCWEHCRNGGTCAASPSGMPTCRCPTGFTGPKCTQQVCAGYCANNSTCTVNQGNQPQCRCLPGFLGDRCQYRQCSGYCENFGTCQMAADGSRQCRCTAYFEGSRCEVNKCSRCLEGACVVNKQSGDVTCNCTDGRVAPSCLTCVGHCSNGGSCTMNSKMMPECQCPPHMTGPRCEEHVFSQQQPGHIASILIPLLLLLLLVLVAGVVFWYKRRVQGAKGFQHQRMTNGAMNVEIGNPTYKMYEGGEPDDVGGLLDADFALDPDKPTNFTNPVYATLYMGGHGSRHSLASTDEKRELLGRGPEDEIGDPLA
# Chain of serine protease TMPRSS2 (O15393 whole entry): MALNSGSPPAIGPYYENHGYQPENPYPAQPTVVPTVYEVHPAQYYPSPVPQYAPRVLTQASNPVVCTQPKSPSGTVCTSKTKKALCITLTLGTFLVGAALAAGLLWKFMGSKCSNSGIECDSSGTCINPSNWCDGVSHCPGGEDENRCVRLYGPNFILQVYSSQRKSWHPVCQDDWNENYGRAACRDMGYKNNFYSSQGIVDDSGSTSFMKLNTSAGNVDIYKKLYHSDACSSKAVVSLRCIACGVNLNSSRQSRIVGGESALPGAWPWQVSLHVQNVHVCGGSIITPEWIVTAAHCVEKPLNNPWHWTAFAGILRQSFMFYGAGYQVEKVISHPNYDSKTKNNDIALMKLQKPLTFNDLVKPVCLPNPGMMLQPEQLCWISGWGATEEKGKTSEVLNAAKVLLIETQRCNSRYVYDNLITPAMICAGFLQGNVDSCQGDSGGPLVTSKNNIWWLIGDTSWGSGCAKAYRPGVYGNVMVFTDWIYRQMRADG
molecule,measurement,setting,value
Ac- RRRCFV[Nal]L[Nle]C (cyclic) [Peptide A5],activity in reducing TNFα activation,TNFα,improved activities in reducing TNFα activation
Ac- RRR[Dap]FT[Nal]L[Nle]D (cyclic) [Peptide A2-1],activity in reducing TNFα,TNFα,superior activities in reducing TNFα
same,EC50 TNFα,TNFα,12.99 µg/mL
same,activity in reducing NFκB activation,NFκB; [5],superior activities
same,EC50 NFκB,NFκB,5.77 µg/mL
same,EC50 IL-6,IL-6,9.644 µg/mL
Ac-EEEVKFNKPFVFL[Nle]EEE [SA5],NFκB inhibition activity,NFκB,minimal NFκB inhibition activity
Ac-HHHPFVFLMHHH [SA1],NFκB inhibition activity,NFκB,minimal NFκB inhibition activity
Ac-HHHPFVFL[Nle]HHH [SA2],NFκB inhibition activity,NFκB,minimal NFκB inhibition activity
Ac-KKKPFVFL[Nle]KKK [SA4],NFκB inhibition activity,NFκB,minimal NFκB inhibition activity
Ac-RRRCFTFL[Nle]C (also: cyclic (positions not given here)) [Peptide A8],activity in reducing TNFα activation,TNFα,improved activities in reducing TNFα activation
Ac-RRRCPFVFL[Nle]CRRR (cysteine pairing not given here) [SA6],NFκB inhibition activity,NFκB,improved activity in NFκB inhibition
Ac-RRRDFVFL[Nle][Dap] (also: cyclic (positions not given here)) [Peptide A10],activity in reducing TNFα activation,TNFα,improved activities in reducing TNFα activation
Ac-RRRPFVFL[Nle]RRR [SA3],NFκB inhibition activity,NFκB,improved activity in NFκB inhibition; also recorded: more effective in reducing NFκB activation
HN- RRRAT[Nal]L[NIe]D (cyclic) [Peptide A3-14],EC50 TNFα,TNFα,6 µg/mL
same,activity in reducing NFκB activation,"NFκB; FIG. 9, 1.56 to 12.5 μg/ml",superior activities in reducing NFκB activation
same,EC50 NFκB,NFκB,3.775 µg/mL
same,cytotoxic effects,[1],no cytotoxic effects
same,activity in reducing IL-6 secretion,"IL-6; FIG. 10, up to 12.5 μg/ml, LPS 100 ng/ml 24 hours",superior activities in reducing IL-6 secretion
same,EC50 IL-6,IL-6,0.605 µg/mL
"HN- RRRFTWL[dS]D (cyclic) (not fully specified (bridges); printed as HN- RRRFTWL[dS]D (cyclic); also: cyclic, mode of cyclisation not given here) [Peptide A3-16]",cytotoxic effects,[1],no cytotoxic effects
HN- RRRFT[Nal]L[dS]D (cyclic) [Peptide A3-15],cytotoxic effects,[1],no cytotoxic effects
HN- RRRFT[Nal]]LD (cyclic) (cyclo(RRRFT[Nal]LD)) [Peptide A3-1],cytotoxic effects,[1],no cytotoxic effects
"HN- RRRFVFL[dDap]D (cyclic) (not fully specified (bridges); printed as HN- RRRFVFL[dDap]D (cyclic); also: cyclic, ring not given here) [Peptide A3-10]",activity in reducing NFκB activation,"NFκB; FIG. 9, 1.56 to 12.5 μg/ml",superior activities in reducing NFκB activation
HN- [rK]RRFT[Nal]]LD (cyclic) ([rK]RRFT[Nal]LD; lactam 1-8) [Peptide A3-2],cytotoxic effects,[1],no cytotoxic effects
HN-RRRFT[Nal]L[Nle]D (cyclic) [Peptide A2-2],activity in reducing TNFα,TNFα,superior activities in reducing TNFα
same,activity in reducing NFκB activation,NFκB; [5],superior activities
HN-RRRFVFLD (cyclic) (not fully specified; cyclised or stapled) [Peptide A2-4],activity in reducing TNFα,TNFα,superior activities in reducing TNFα
same,activity in reducing NFκB activation,NFκB; [5],superior activities
HN-RRRFVFL[Nle]D (cyclic) [Peptide A15],activity in reducing TNFα activation,TNFα,improved activities in reducing TNFα activation
same,EC50 TNFα,TNFα,36.75 µg/mL
same,EC50 NFκB,NFκB,5.053 µg/mL
same,EC50 IL-6,IL-6,32.39 µg/mL
HN-RRRFVFL[dS]D (cyclic) (RRRFVFLSD; not fully specified; D-residues; cyclised or stapled) [Peptide A2-5],activity in reducing TNFα,TNFα,superior activities in reducing TNFα
same,activity in reducing NFκB activation,NFκB; [5],superior activities
same,TSLP level in lung homogenate,"[2]; compared to ova-induced vehicle treated mice, p=0.026",significantly lower levels of TSLP
same,total protein levels in the lung,"[2]; compared to vehicle treated animals, p<0.005",significantly decreased
same,"TH-2 mediated cytokines IL-5, IL-4 and IL-13 in lung tissue",[2]; compared with vehicle treated mice,"reduction of TH-2 mediated cytokines IL-5, IL-4 and IL-13"
"Ac-RRRKFT[Nal]LD (lactam 4-9) [SERPIN peptide derivative A3-7, Ac-RRRKFT[Nal]LD (cyclic)]","EC50, NFκB (reduction of NFκB activation, SEAP reporter cells, LPS)",[3],22.4 µg/mL
same,"EC50, IL-6 (IMG microglial cells, LPS, ELISA)",[4],3.65 µg/mL
"Ac-RRR[Dap]FT[Nal]L[Nle]D [SERPIN peptide derivative A2-1, Ac-RRR[Dap]FT[Nal]L[Nle]D (cyclic)]","EC50, NFκB (reduction of NFκB activation, SEAP reporter cells, LPS)",[3],5.77 µg/mL
same,"EC50, IL-6 (IMG microglial cells, LPS, ELISA)",[4],9.64 µg/mL
same,"EC50, TNFα (IMG microglial cells, LPS, ELISA)",[4],13 µg/mL
"RRRAT[Nal]L[Nle]D (not fully specified (bridges); printed as HN- RRRAT[Nal]L[NIe]D (cyclic); also: cyclic, ring not given here) [SERPIN peptide derivative A3-14, HN-RRRAT[Nal]L[Nle]D (cyclic)]","EC50, NFκB (reduction of NFκB activation, SEAP reporter cells, LPS)",[3],3.77 µg/mL
same,"EC50, IL-6 (IMG microglial cells, LPS, ELISA)",[4],0.605 µg/mL
same,"EC50, TNFα (IMG microglial cells, LPS, ELISA)",[4],6 µg/mL
"RRRFVFLXD (not fully specified; D-Dap at position 8; cyclic (HN- at the N-terminus (so in the source))) [SERPIN peptide derivative A3-10, HN-RRRFVFL[dDap]D (cyclic)]","EC50, NFκB (reduction of NFκB activation, SEAP reporter cells, LPS)",[3],2.16 µg/mL
same,"EC50, IL-6 (IMG microglial cells, LPS, ELISA)",[4],58.5 µg/mL
same,"EC50, TNFα (IMG microglial cells, LPS, ELISA)",[4],34.6 µg/mL
"RRRFVFLXD (not fully specified; Nle (norleucine) at position 8; cyclic: head-to-tail linker between the amino group of the N-terminal Arg and the side-chain carboxylic acid of the C-terminal Asp, ring closing length 12 C-C bonds) [SERPIN peptide derivative A15, HN-RRRFVFL[Nle]D (cyclic)]","EC50, NFκB (reduction of NFκB activation, SEAP reporter cells, LPS)",[3],5.05 µg/mL
same,"EC50, IL-6 (IMG microglial cells, LPS, ELISA)",[4],32.4 µg/mL
same,"EC50, TNFα (IMG microglial cells, LPS, ELISA)",[4],36.8 µg/mL
VKFNKPFVFLMIEQNTK [SERPIN peptide SP16 (VKFNKPFVFLMIEQNTK)],"EC50, NFκB (reduction of NFκB activation, SEAP reporter cells, LPS)",[3],152 µg/mL
same,"EC50, TNFα (IMG microglial cells, LPS, ELISA)",[4],~618 µg/mL
"RRRFVFLSD (not fully specified; D-Ser at position 8; cyclic (HN- at the N-terminus (so in the source))) [SERPIN peptide derivative A2-5, HN-RRRFVFL[dS]D (cyclic)]","EC50, NFκB (reduction of NFκB activation, SEAP reporter cells, LPS)",[3],1.47 µg/mL
same,"EC50, IL-6 (IMG microglial cells, LPS, ELISA)",[4],1.4 µg/mL
same,"EC50, TNFα (IMG microglial cells, LPS, ELISA)",[4],2.39 µg/mL
"RRRFVFLD (not fully specified; cyclic (HN- at the N-terminus (so in the source))) [SERPIN peptide derivative A2-4, HN-RRRFVFLD (cyclic)]","EC50, NFκB (reduction of NFκB activation, SEAP reporter cells, LPS)",[3],5.25 µg/mL
same,"EC50, IL-6 (IMG microglial cells, LPS, ELISA)",[4],11.3 µg/mL
same,"EC50, TNFα (IMG microglial cells, LPS, ELISA)",[4],12.5 µg/mL
"Ac-RRRCPFVFL[Nle]C (disulfide 4-11 (inferred)) [SERPIN peptide derivative SA7, Ac-RRRCPFVFL[Nle]C (cyclic)]","EC50, NFκB (reduction of NFκB activation, SEAP reporter cells, LPS)",[3],470 µg/mL
same,"EC50, IL-6 (IMG microglial cells, LPS, ELISA)",[4],318 µg/mL
same,"EC50, TNFα (IMG microglial cells, LPS, ELISA)",[4],124 µg/mL
same,"IC50, protease TMPRSS2 activity in an overexpressing cell system",serine protease TMPRSS2,0.083 µg/mL
"RRRFVFLAD (not fully specified; cyclic (HN- at the N-terminus (so in the source))) [SERPIN peptide derivative A2-3, HN-RRRFVFLAD (cyclic)]","EC50, NFκB (reduction of NFκB activation, SEAP reporter cells, LPS)",[3],2.65 µg/mL
same,"EC50, IL-6 (IMG microglial cells, LPS, ELISA)",[4],3.38 µg/mL
same,"EC50, TNFα (IMG microglial cells, LPS, ELISA)",[4],11.8 µg/mL
